One data set deals with T1, HSV-1 protease (Human herpesvirus 1, UniProt P10210).
T1 construct: 6xHis (N); made in house; host or cells: baculovirus expression system
Kind of data set: Enzymatic assay for HSV-1 protease (assembly) inhibitor, fluorescence polarization. Type of data set: biochemical. To be noted: read-out: HSV-1 Enzyme inhibition IC50. The essentials: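 His6-tagged HSV-1 UL26 protease, baculovirus-expressed, preincubated 30 min at RT with compound in 1 M citrate/phosphate buffer pH 7.4 with 20% glycerol and 2 mM TCEP. A biotin-HTYLQA*SERFRIK-DTAF substrate was then cleaved for 60 min at RT, stopped with avidin, and read by fluorescence polarization versus no-inhibitor control.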

In the next data set the test system is Vero cells. Kind of data set: Cytotoxicity, Vero cells, Alamar Blue. Format: cell-based. The settings on record: 25 μM, 20 hours. The method, boiled down:
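Overnight-seeded Vero cells were exposed to 25 μM compound in 2% FBS-DMEM for 20 h at 37 °C, 5% CO2. Alamar Blue was then added for about 6 h. The absorbance ratio relative to compound-free control gave the living-cell ratio.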

Another data set concerns HSV-1. Kind of data set: Antiviral activity, HSV-1 in Vero cells, plaque method. Type of data set: cell-based. To be noted: Human alphaherpesvirus 1, 20 hours, 90% inhibition of plaque formation. The essentials:
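HSV-1 (50,000 pfu in 2% FBS-DMEM) was added to Vero cells and removed, then the compound was applied in 2% FBS-DMEM for 20 h at 37° C, 5% CO2. After a freeze-thaw, virus yield in the medium was titred by plaque assay. EC90 is the concentration giving 90% plaque reduction versus the compound-free control.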

pIC50: −log10 of the molar value. Where only a bound is given, the exact number is not on record here.

T1 sequence (P10210 1-247): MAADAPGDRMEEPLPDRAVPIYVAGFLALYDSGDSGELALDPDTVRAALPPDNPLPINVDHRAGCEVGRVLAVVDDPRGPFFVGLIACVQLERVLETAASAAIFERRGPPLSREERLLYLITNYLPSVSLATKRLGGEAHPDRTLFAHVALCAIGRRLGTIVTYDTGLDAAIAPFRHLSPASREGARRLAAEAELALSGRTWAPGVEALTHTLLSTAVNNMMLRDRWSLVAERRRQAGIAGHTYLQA

On to `Cc1c(NC(=O)OC(C)(C)C)ccc2nc(N[C@@H](CCc3ccccc3)C(=O)NCCc3ccccn3)oc(=O)c12` [Compound No.42, {5-Methyl-4-oxo-2-[3-phenyl-1S-(2-pyridin-2-yl-ethylcarbamoyl)-propylamino]-4H-benzo[d][1,3]oxazin-6-yl}-carbamic acid tert-butyl ester], for which the pIC50 (in general, the IC50 on a negative log10 scale, so that one unit is a factor of ten) on HSV-1 protease is 6.00. Besides, in the data set on Vero cells, the “Cell viability (% of control)” value amounted to 83.0%. Besides, the EC90 (usually the concentration needed for an effect of 90%) in the data set on HSV-1 was 10.7 µM.
Taken in the same sequence, the figures for `Cc1c(NC(=O)c2ccccc2)ccc2nc(NC(C)(C)C(=O)N(C)CCc3ccccn3)oc(=O)c12` [Compound No.138, N-(5-Methyl-2-{1-methyl-1-[methyl-(2-pyridin-2-yl-ethyl)-carbamoyl]-ethylamino}-4-oxo-4H-benzo[d][1,3]oxazin-6-yl)-benzamide] were 5.55, 84.4% and above 12.5 µM.
Take `Cc1c(NC(=O)OC(C)(C)C)ccc2nc(N[C@@H](CC(C)C)C(=O)NCc3ccccn3)oc(=O)c12` [Compound No.36, (5-Methyl-2-{3-methyl-1S-[(pyridin-2-ylmethyl)-carbamoyl]-butylamino}-4-oxo-4H-benzo[d][1,3]oxazin-6-yl)-carbamic acid tert-butyl ester]: the pIC50 on HSV-1 protease was 5.24. In addition, the “Cell viability (% of control)” value with Vero cells is 110.0%. Besides, it took 21.5 µM to reach the 90% level in the data set on HSV-1 (EC90).
Taken in the same sequence, the figures for `Cc1c(NC(=O)OC(C)(C)C)ccc2nc(N(C)[C@@H](C)C(=O)N(C)Cc3ccccn3)oc(=O)c12` [Compound No.75, (5-Methyl-2-{methyl-[1S-(methyl-pyridin-2-ylmethyl-carbamoyl)-ethyl]-amino}-4-oxo-4H-benzo[d][1,3]oxazin-6-yl)-carbamic acid tert-butyl ester] were 5.66, 93.1% and above 12.5 µM.
As for `Cc1c(NC(=O)OC(C)(C)C)ccc2nc(N3Cc4ccccc4C[C@H]3C(=O)N(C)CCc3ccncc3)oc(=O)c12` [Compound No.101, (5-Methyl-2-{3S-[methyl-(2-pyridin-4-yl-ethyl)-carbamoyl]-3,4-dihydro-1H-isoquinolin-2-yl}-4-oxo-4H-benzo[d][1,3]oxazin-6-yl)-carbamic acid tert-butyl ester], the pIC50 at HSV-1 protease was below 4.70. Further, in the data set with Vero cells, the “Cell viability (% of control)” value is listed as 45.5%. For the same compound, it took 8.4 µM to reach the 90% level in the data set with HSV-1 (EC90).
For `Cc1c(NC(=O)c2cccc(C(F)(F)F)c2)ccc2nc(NC(C)(C)C(=O)N(C)CCc3ccccn3)oc(=O)c12` [Compound No.145, N-(5-Methyl-2-{1-methyl-1-[methyl-(2-pyridin-2-yl-ethyl)-carbamoyl]-ethylamino}-4-oxo-4H-benzo[d][1,3]oxazin-6-yl)-3-trifluoromethyl-benzamide] the same measures were 5.89, 19.7% and 6 µM.
Taken in the same sequence, the figures for `Cc1c(NC(=O)CCCNC(=O)c2ccc(N(C)C)cc2)ccc2nc(NC(C)(C)C(=O)N(C)CCc3ccccn3)oc(=O)c12` [Compound No.224, 4-Dimethylamino-N-[3-(5-methyl-2-{1-methyl-1-[methyl-(2-pyridin-2-yl-ethyl)-carbamoyl]-ethylamino}-4-oxo-4H-benzo[d][1,3]oxazin-6-ylcarbamoyl)-propyl]-benzamide] were 6.40, 107.5% and above 12.5 µM.
For `Cc1c(NC(=O)OC(C)(C)C)ccc2nc(NC(C)(C)C(=O)N(C)CCc3ccncc3)oc(=O)c12` [Compound No.51, (5-Methyl-2-{1-methyl-1-[methyl-(2-pyridin-4-yl-ethyl)-carbamoyl]-ethylamino}-4-oxo-4H-benzo[d][1,3]oxazin-6-yl)-carbamic acid tert-butyl ester] the same measures were 6.22, 106.0% and 9.3 µM.
With `Cc1c(NC(=O)OC(C)(C)C)ccc2nc(N[C@H](C(=O)N(C)CCc3cccnc3)C(C)(C)C)oc(=O)c12` [Compound No.66, (2-{2,2-Dimethyl-1S-[methyl-(2-pyridin-3-yl-ethyl)-carbamoyl]-propylamino}-5-methyl-4-oxo-4H-benzo[d][1,3]oxazin-6-yl)-carbamic acid tert-butyl ester], on HSV-1 protease, the negative-log IC50 (pIC50) was 4.85. In addition, the “Cell viability (% of control)” value with Vero cells worked out at 81.5%. In addition, the 90% effect level in the data set with HSV-1 (EC90) was put at 4.6 µM.
Taken in the same sequence, the figures for `Cc1c(NC(=O)CCC2CCCCC2)ccc2nc(NC(C)(C)C(=O)N(C)CCc3ccccn3)oc(=O)c12` [Compound No.160, 2-[6-(3-Cyclohexyl-propionylamino)-5-methyl-4-oxo-4H-benzo[d][1,3]oxazin-2-ylamino]-2,N-dimethyl-N-(2-pyridin-2-yl-ethyl)-propionamide] were 5.96, 13.0% and 11.3 µM.
On to `Cc1c(NC(=O)OC(C)(C)C)ccc2nc(N(C)[C@@H](Cc3ccccc3)C(=O)NCc3cccnc3)oc(=O)c12` [Compound No.79, [5-Methyl-2-(methyl-{2-phenyl-1S-[(pyridin-3-ylmethyl)-carbamoyl]-ethyl}-amino)-4-oxo-4H-benzo[d][1,3]oxazin-6-yl]-carbamic acid tert-butyl ester], for which the pIC50 on HSV-1 protease is 6.00. In addition, the “Cell viability (% of control)” value in the data set with Vero cells amounted to 38.5%. Besides, in the data set on HSV-1, the EC90 came to 6 µM.
As for `Cc1c(NC(=O)OC(C)(C)C)ccc2nc(N[C@H](C(=O)NCCc3ccccn3)C(C)C)oc(=O)c12` [Compound No.26, {5-Methyl-2-[2-methyl-1S-(2-pyridin-2-ylethylcarbamoyl)-propylamino]-4-oxo-4H-benzo[d][1,3]oxazin-6-yl}-carbamic acid tert-butyl ester], on HSV-1 protease, the pIC50 was 5.49. For the same compound, the “Cell viability (% of control)” value with Vero cells is given as 107.0%. For the same compound, the EC90 in the data set on HSV-1 came out at 13 µM.
As to `Cc1c(NC(=O)OC(C)(C)C)ccc2nc(N[C@@H](CCc3ccccc3)C(=O)N(C)CCc3ccccn3)oc(=O)c12` [Compound No.48, (5-Methyl-2-{1S-[methyl-(2-pyridin-2-yl-ethyl)-carbamoyl]-3-phenyl-propylamino}-4-oxo-4H-benzo[d][1,3]oxazin-6-yl)-carbamic acid tert-butyl ester], the pIC50 on HSV-1 protease was 5.92. The “Cell viability (% of control)” value in the data set with Vero cells is 44.2%. For the same compound, the EC90 in the data set with HSV-1 is 3.7 µM.
For `Cc1c(NC(=O)OC(C)(C)C)ccc2nc(N[C@H](C(=O)NCc3cccnc3)C(C)C)oc(=O)c12` [Compound No.24, (5-Methyl-2-{2-methyl-1S-[(pyridin-3-ylmethyl)-carbamoyl]-propylamino}-4-oxo-4H-benzo[d][1,3]oxazin-6-yl)-carbamic acid tert-butyl ester] the same measures were below 4.70, 99.5% and above 25 µM.
For `Cc1c(NC(=O)OC(C)(C)C)ccc2nc(N[C@@H](Cc3ccccc3)C(=O)N(C)CCc3cccnc3)oc(=O)c12` [Compound No.64, (5-Methyl-2-{1S-[methyl-(2-pyridin-3-yl-ethyl)-carbamoyl]-2-phenyl-ethylamino}-4-oxo-4H-benzo[d][1,3]oxazin-6-yl)-carbamic acid tert-butyl ester] the same measures were 6.10, 70.1% and 5.1 µM.
As to `COCC(=O)Nc1ccc2nc(NC(C)(C)C(=O)N(C)CCc3ccccn3)oc(=O)c2c1C` [Compound No.137, 2-[6-(2-Methoxy-acetylamino)-5-methyl-4-oxo-4H-benzo[d][1,3]oxazin-2-ylamino]-2,N-dimethyl-N-(2-pyridin-2-yl-ethyl)-propionamide], the pIC50 at HSV-1 protease was 5.38. The “Cell viability (% of control)” value with Vero cells is listed as 98.2%. In the data set with HSV-1, this compound had a concentration for an effect of 90% (EC90) above 12.5 µM.
Taken in the same sequence, the figures for `Cc1c(NC(=O)OC(C)(C)C)ccc2nc(NC(C)(C)C(=O)NCCc3ccccn3)oc(=O)c12` [Compound No.35, {5-Methyl-2-[1-methyl-1-(2-pyridin-2-ylethylcarbamoyl)-ethylamino]-4-oxo-4H-benzo[d][1,3]oxazin-6-yl}-carbamic acid tert-butyl ester] were 5.80, 110.0% and above 25 µM.
With `CCCCOc1ccc(C(=O)Nc2ccc3nc(NC(C)(C)C(=O)N(C)CCc4ccccn4)oc(=O)c3c2C)cc1` [Compound No.165, 4-Butoxy-N-(5-methyl-2-{1-methyl-1-[methyl-(2-pyridin-2-yl-ethyl)-carbamoyl]-ethylamino}-4-oxo-4H-benzo[d][1,3]oxazin-6-yl)-benzamide], the pIC50 on HSV-1 protease is 5.70. In the data set on Vero cells, the “Cell viability (% of control)” value amounted to 16.9%. In the data set on HSV-1, this compound returned an EC90 of 3.6 µM.
Regarding `Cc1c(NC(=O)OC(C)(C)C)ccc2nc(N(C)[C@@H](C)C(=O)N(C)CCc3cccnc3)oc(=O)c12` [Compound No.77, [5-Methyl-2-(methyl-{1S-[methyl-(2-pyridin-3-yl-ethyl)-carbamoyl]-ethyl}-amino)-4-oxo-4H-benzo[d][1,3]oxazin-6-yl]-carbamic acid tert-butyl ester], the pIC50 on HSV-1 protease was 5.74. Besides, the “Cell viability (% of control)” value in the data set with Vero cells stood at 94.4%. The EC90 in the data set on HSV-1 was above 12.5 µM.

For the origin of these results see patent publication US20040116420A1 (priority 2001, published 2004).
